In US12110289B2, “Heterocyclic compounds, preparation methods and uses thereof” (InventisBio Co., Ltd., priority 2020, dated 2024):

Experiment: Rat PK study, single i.g. dose
Format: in vivo
Details: female, SD, plasma, PO, 10 mg/kg
Method: The pharmacokinetic (PK) profile of compounds following single i.g in SD rat obtained from […] Laboratory Animal Co., LTD of Shanghai was determined. Three female rats of weight around 220 g were used. Compounds were prepared at 1 mg/ml with the formulation of 10% DMSO+10% solutol HS15+80% (10% HPβCD in water). Blood samples (0.2 mL) were collected at 0 h (pre-dose) and 0.25, 0.5, 1, 2, 4, 8, 24 h time points after administration of compounds at the dose of 10 mg/kg. The collected blood samples were centrifuged without delay and the plasma was separated and transferred into tubes before storage at -70° C. prior to analysis. Aliquots of the plasma unknowns, blank and calibration standards were placed in 1.5 mL tubes and mixed with acetonitrile/methanol (1/1, v/v) containing IS. After vortexing for 5 min, each sample was centrifuged at 14000 rpm at 4° C. for 10 min. The supernatant were injected into the LC-MS/MS system. […] Eluates were analyzed using an API4000 Q-Trap mass spectrometer with a TurboIonSpray interface. Chromatographic separation was done with a mobile phase composed of water with 0.1% formic acid (solution A) and acetonitrile with 0.1% formic acid (solution B). The mobile phase was delivered at a flow rate of 0.6 mL/min, using a stepwise gradient elution program. To improve the sensitivity of the test compound screening, a MRM method in positive electrospray ionization mode was employed. Mass spectrometry data was acquired and analyzed using AB Sciex Analyst version 1.6.2 software. The pharmacokinetic parameters were derived using standard noncompartmental methods with Phoenix WinNonLin Professional Version 8.1.

With `C=CC(=O)N1C[C@H](C)N(c2nc(=O)n(-c3c(C4CC4)ncnc3C3CC3)c3nc(-c4c(N)cccc4F)c(Cl)cc23)C[C@H]1C` [Compound 126] the AUC(0-t) (read-out: Rat PO (10 mpk) AUC last) was 3.8 µM·h, the Cmax (read-out: Rat PO (10 mpk) Cmax) was 1060 nM and the bioavailability (read-out: Rat PO (10 mpk) F %) was 54%.
